Converted amounts (≈) assume the structure as drawn. “And” between values parts separate entries of the source, which are not always exact repeats. Equal entries are not always repeated. Where two headings read alike, the source gives them in different places.
Assays:
[1] = Oxygen radical absorbance capacity (ORAC) assay
Method: The ORAC assay was performed following Ou et al., as modified by Garcés-Rimón et al.. All samples and reagents were dissolved in phosphate buffer (75 mM; pH 7.4). […] The fluorescence was recorded at 40 °C every 55 s for 95 min using a fluorimeter (SpectraMax M2; Molecular Devices, California, USA), with excitation and emission wavelengths of 480 and 520 nm, respectively. All samples were tested in triplicate. ORAC values were expressed as μmol of Trolox equivalents (TE)/μmol of pure compound.

[2] = DPPH free radical scavenging assay (RSA); conditions: for concentration down to which RSA ability is maintained independently of time: 10 min to 2 h; for RSA capacity fold higher compared to resveratrol: after 10 min, from IC50; for RSA percentage: highest concentration 2 mM, 10 min
Method: For the 2,2′-diphenylpicrylhydrazyl (DPPH) assay, antioxidant compounds were dissolved in ethanol with a stock concentration of 4 mM and stirred for 24 h. DPPH (Alfa Aesar) was also dissolved in ethanol at 0.127 mM. Different compound solutions were prepared by serial dilutions of each stock solution ([…]). […] Amounts of 80 µL of each solution and 80 µL of DPPH were added in a 96-well plate. The absorbance was measured at different times (10, 20 and 30 min and 1 and 2 h) by a Multi-Detection Microplate Reader Synergy HT (λMAX = 515 nm). Radical scavenging activity (RSA, %) was calculated using Equation (1) (1) RSA(%)=ADPPH−AEXTRACT/ADPPH·100 where AEXTRACT and ADPPH correspond to the absorbance of DPPH with and without the extracts, respectively. Eight replicates were used for each compound and results were expressed as mean value ± standard deviation. The RSA half-maximal inhibitory concentration (IC50) values were calculated from the relationship curve of RSA versus concentrations by a non-linear fit using the software GraphPad Prism 7.

[3] = system: human dermal fibroblasts (HDF); test: Cell viability, AlamarBlue assay; type: cell-based; conditions: for IC50: 24 h, AlamarBlue, non-linear fit
Method: Cytotoxicity of selected antioxidant compounds was assessed using human dermal fibroblasts (HDF, Innoprot, P10856) and an AlamarBlue assay. Human fibroblasts were grown and maintained using Dulbecco’s Modified Eagle Medium high glucose (DMEM, Sigma Aldrich, D6171), supplemented with 10% Fetal Bovine Serum (FBS), 2% L-glutamine and 1% penicillin/streptomycin. Cells were incubated at 37 °C, 95% relative humidity and 5% CO2. Additionally, DMEM-high glucose, HEPES, no phenol red (Gibco, 2106329) was used to prepare the AlamarBlue solution. Stock solutions of the antioxidant compounds 3, 8, 15 and 17 were prepared in dimethyl sulfoxide (DMSO). Compound 7 was not soluble enough in DMSO to obtain a cell viability IC50 value. Serial dilutions of the antioxidant compounds were prepared using the previously mentioned stock solutions and DMEM. Final DMSO concentration was maintained lower than 1% v/v in the cell culture experiments. HDF were seeded at 9 × 10^4 cells/well in a 96-well plate and incubated for 24 h. The medium was replaced by the corresponding antioxidant solutions and incubated for an additional 24 h. Then, compounds were removed, cells were washed with Dulbecco’s Phosphate Buffered Saline (PBS, Sigma Aldrich) and treated with a 10% v/v AlamarBlue (Invitrogen) solution prepared in DMEM without phenol red. After 3 h of incubation, absorbance was monitored at 570 nm by a Multi-Detection Microplate Reader Synergy HT. Cells treated with DMEM without any antioxidant compound were used as the 100% viability control. Eight replicates were used for each antioxidant solution. IC50 values were obtained by a non-linear fit using the software GraphPad Prism 7.

[4] = system: NADPH oxidase activity in segments of aorta from C57BL6/J mice; test: NADPH oxidase activity in aortic segments stimulated ex vivo with IL-1β; conditions: IL-1β 10 ng/mL 6 h
Method: Aortic segments from three-month-old C57BL6/J mice were incubated with IL-1β (10 ng/mL, 6 h, Sigma Aldrich) in the presence and in the absence of the different compounds that were added 30 min before stimulation.
(§1) The O2 production generated by NADPH oxidase was determined by a chemiluminescence assay. Briefly, endothelial cells or aortic segments were homogenized in phosphate buffer (50 mmol/L KH2PO4, 1 mmol/L EGTA, 150 mmol/L sucrose, pH 7.4). The reaction was started by the addition of a lucigenin (5 μmol/L) and NADPH (100 μmol/L; Sigma-Aldrich) mixture to the protein sample in a final volume of 250 μL. Chemiluminescence was determined every 2.4 s for 3 min in a microtiter plate luminometer (Enspire Perkin Elmer). Basal activity in the absence of NADPH was subtracted from each reading and normalized to protein concentration. Data were normalized vs. control situation.

[5] = Stability in aqueous media (H2O/acetonitrile 80:20, HPLC-MS); type: physicochemical; conditions: for stability in aqueous media: H2O/acetonitrile (80:20%), room temperature, checked for 60 days; for Aqueous Stability (%): remaining pure compound (HPLC) after two months at room temperature in aqueous solution (+20% acetonitrile)
Text: The solutions were checked by HPLC-MS at regular intervals of time for 60 days. […] The rest of the compounds suffered progressive degradation, with complete disappearance from the solution after 10 or 20 days. The most unstable polyphenol derivatives were 4 and 10 (Figure S1), having both two p-dihydroxy substitutions in the phenyl rings, which points to the rapid and easy oxidation to the p-hydroquinone. From the four compounds with three phenyl rings, only one was stable in aqueous solution (17).

[6] = ABTS radical cation scavenging assay
Method: The 2,2′-azino-bis (3-ethylbenzothiazoline-6-sulfonic acid) diammonium salt (ABTS) assay was performed according to Re et al. and modified by Oki et al. for its use in microplates. Samples were diluted in methanol. An ABTS^•+ stock solution was prepared by adding 44 μL of potassium persulfate (140 mmol/L) to a 2.5 mL ABTS^•+ aqueous solution (7 mmol/L). The working solution of the radical ABTS^+ was prepared by diluting the stock solution 1:75 (v/v) in a sodium phosphate buffer (5 mmol/L, pH 7.4) to obtain an absorbance value of 0.7±0.02 at 734 nm. Samples (30 μL) were added to 270 μL of the working solution of ABTS^•+ in a microplate. Absorbance was measured at 734 nm and 30 °C for 20 min, every 5 min in a Synergy HT plate spectrophotometer (Biotek Instruments, Winoosky, VT, USA). A calibration curve was made with Trolox (20–250 μM). All samples were analyzed in triplicate. Results were expressed in μmol TE/μmol of pure compound, as for the ORAC assays.

[7] = Aqueous thermodynamic solubility in H2O (UV); type: physicochemical; conditions: water, thermodynamic from solid
Text: 4) Log P and aqueous solubility of selected compounds.
Table S2. Theoretical Log P values and aqueous thermodynamic solubility measured for
Comp `Chemical Structure MW LogP Calc Aqueous Solubility a
a Thermodynamic solubility in H 2O (UV). […]

[8] = system: NADPH oxidase activity in human microvascular endothelial cells (HMEC-1); test: NADPH oxidase activity in endothelial cells stimulated with Angiotensin II; type: cell-based; conditions: HMEC-1, AngII 1 nmol/L 6 h, compound added 30 min before
Method: The human microvascular endothelial cells line (HMEC-1) (ATCC®, Middlesex, UK; CRL-3243™) was used. Cells were cultured according to the manufacturer instructions with MCDB131 medium (Corning, NY, USA, Cat. No. 702564) supplemented with 10 ng/mL epidermal growth factor (Sigma-Aldrich, Alcobendas, Spain), 1 μg/mL hydrocortisone (Sigma-Aldrich), 10 mmol/L glutamine (Sigma-Aldrich), 10% fetal bovine serum (FBS, Sigma-Aldrich), 100 U/mL of penicillin and 100 µg/mL of streptomycin. At 80% confluence, cells were serum-deprived for 24 h before stimulation. HMEC were treated with AngII (1 nmol/L for 6 h; Sigma-Aldrich) in the absence or in the presence of the different compounds that were added 30 min before stimulation.
as §1

[9] = system: Saccharomyces cerevisiae strain BY4741; test: In vivo antioxidant capacity in stressed yeasts (growth recovery, survivors); type: cell-based
Method: Saccharomyces cerevisiae haploid strain BY4741 was used as described previously. Briefly, 20 μL of glycerol stock culture was revived in 5ml of YPD medium (1% yeast extract, 2% bacteriological peptone and 2% dextrose) at 28 °C, with shaking (210 rpm). Fifty microliters of 20-h-old culture was used to inoculate fresh 5ml YPD (control medium) or 5 mL of oxidative stress medium (YPOxD: YPOxD; 1% yeast extract, 2% bacteriological peptone, 1% dextrose and 3% H2O2). Stress (and control) was conducted during 16h at 28 °C, with shaking (220 rpm).
Growth rate was determined from growth kinetics using the BioScreen C plate-reader system (OY Growth Curves Ab Ldt., Helsinki, Finland). Stressed yeast cultures (16 h old) were used to inoculate 200 µl of fresh media to an initial OD595 of 0.05–0.07, being distributed in 100-well honeycomb plates (Oy Growth Curves) in triplicate per each condition (each different dose of each compound). Plates were then incubated at 28 °C for 72h, with shaking (High force), taking OD measurement each 15 min in the Bioscreen C. Maximum growth rate (μmax) and biomass production (carrying capacity) were determined in R using ‘Growthcurver’ package version 0.3 [24]. Growth curves were constructed in EXCEL, represented as mean ± SEM (standard error of mean). […] In addition, to measure survival after oxidative stress and antioxidant effectiveness of each compound, yeast cells from each challenge were serially diluted in 96-well plates, and each dilution was spotted (with a 8 × 6 stainless steel replica platter from SIGMA) in triplicate to determine viable colonies after 24–48 h at 28 °C. Survivors (mean ± SEM) were compared between treatments with one-way ANOVA, Fisher’s LSD test, with alpha at 0.05 for significance.

[10] = compound needed to reach 50% RSA after 10 min, read-out: DPPH PSA IC50 10 min
[11] = read-out: DPPH PSA IC50 2 h, compound needed to reach 50% RSA after 2 h

IC50 [2, 10] [µM] | IC50 [2, 11] [µM] | stability in aqueous media [5] | Aqueous Stability (%) [5] [%] | solubility [7] [µg/mL] | melting point | Structure (SMILES) | ORAC [1] | ORAC ([1]; TE: Trolox Equivalents) [TE] | concentration down to which RSA ability is maintained independently of time [2] [mM] | RSA capacity fold higher compared to resveratrol [2] [fold] | RSA percentage [2] [%] | IC50 [3] | IC50 ([3]; Homo sapiens, Fibroblast) [µM] | effect on NADPH oxidase activity induced by IL-1β [4] | ABTS [6] | ABTS (values in text) [6] [TE] | effect on NADPH oxidase activity induced by Angiotensin II [8] | other results
8.3 | 6.77 | sufficiently stable | 77 | 1300 ± 100 (≈ 5.01 mM) | 185 to 187 °C (dec.) | O=C(Cc1cc(O)ccc1O)Nc1ccc(O)cc1 [Compound 3, 2-(2′,5′-Dihydroxyphenyl)-N-(4-hydroxyphenyl)acetamide] | 19.2 ± 0.2 µmol of trolox/µmol of pure compound | > 19 | 0.031 | 8 | ~78 | 246 µM and 240 µM | 246 | significant inhibition of the IL-1β effects | 3.27 ± 0.1 µmol of trolox/µmol of pure compound | 3.2 | decreasing NADPH oxidase activity levels in the same order as resveratrol | RSA ([2]; 0.031 mM, maintained from 10 min to 2 h): 78%; cell viability IC50 fold lower than compounds 17 and 8 [3]: 5–7 fold
24.1 | 23.3 | sufficiently stable | 90 | 3100 ± 100 (≈ 12 mM) | 192 to 194 °C | O=C(Cc1ccc(O)c(O)c1)Nc1ccc(O)cc1 [Compound 7, 2-(3′,4′-Dihydroxyphenyl)-N-(4-hydroxyphenyl)acetamide] | 19.2 ± 0.4 µmol of trolox/µmol of pure compound and 19.2 ± 0. µmol of trolox/µmol of pure compound | > 19 | 0.063 | 2.8 | 82 |  |  | significant inhibition of the IL-1β effects | 8.12 ± 0.09 µmol of trolox/µmol of pure compound | 8.1 | decreasing NADPH oxidase activity levels in the same order as resveratrol | cytotoxic effects ([3]; range where soluble in DMSO (up to 6 mM)): did not show any significant cytotoxic effects

Structure (SMILES) | IC50 [2, 10] [µM] | IC50 [2, 11] [µM] | stability in aqueous media [5] | Aqueous Stability (%) [5] [%] | solubility [7] [µg/mL] | melting point | ORAC [1] | ORAC ([1]; TE: Trolox Equivalents) [TE] | concentration down to which RSA ability is maintained independently of time [2] [mM] | RSA capacity fold higher compared to resveratrol [2] [fold] | RSA percentage [2] [%] | IC50 [3] | IC50 ([3]; Homo sapiens, Fibroblast) [µM] | effect on NADPH oxidase activity induced by IL-1β [4] | ABTS [6] | ABTS (values in text) [6] [TE] | effect on NADPH oxidase activity induced by Angiotensin II [8] | other results
O=C(Cc1ccc(O)cc1O)Nc1ccc(O)cc1 [Compound 8, 2-(2′,4′-Dihydroxyphenyl)-N-(4-hydroxyphenyl)acetamide] | 151 | 64.2 | sufficiently stable | 98 | 4100 ± 100 (≈ 15.8 mM) | 186 to 189 °C | 19.3 ± 0.5 µmol of trolox/µmol of pure compound | > 19 |  |  | 67 | > 1400 µM | 1410 |  | 5.00 ± 0.09 µmol of trolox/µmol of pure compound |  |  | growth rate (r) recovery of stressed yeast ([9]; H2O2-stressed BY4741, doses 2, 20 and 40 μg): dose-related antioxidant effect; carrying capacity (k) recovery of stressed yeast ([9]; H2O2-stressed BY4741, each dose tested): able to recover the carrying capacity of yeast cells similarly as control antioxidants

From publication PMC7555119, “Characterization of Novel Synthetic Polyphenols: Validation of Antioxidant and Vasculoprotective Activities” (Antioxidants, 2020)
